Results: ChEMBL document CHEMBL1201862, “PubChem BioAssay data set” (2004)
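96-well plates; 48 h exposure; 5 concentrations. Endpoints by linear interpolation between flanking doses. Not reached: highest tested concentration assigned. The concentration for 50% growth inhibition is given as GI50.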 Activity calls are given as the source filed them. Rule as the data show it: active = GI50 up to about 1.1 µM and inactive = higher.

Experiments:
Assay in all cases: inhibition of tumour cell growth, NCI panel, 48 h
HT-29 = tested on: HT-29
Malme-3M = tested on: Malme-3M
U-251 = tested on: U-251
OVCAR-3 = tested on: OVCAR-3
PC-3 = tested on: PC-3
MOLT-4 = tested on: MOLT-4
UACC-62 = tested on: UACC-62
ACHN = tested on: ACHN
HL-60 = tested on: HL-60
Hs-578T = tested on: Hs-578T
786-0 = tested on: 786-0
M14 = tested on: M14
SK-MEL-2 = tested on: SK-MEL-2
MDA-N = tested on: MDA-N
CCRF-CEM = tested on: CCRF-CEM
MDA-MB-231 = tested on: MDA-MB-231
DU-145 = tested on: DU-145
SK-MEL-28 = tested on: SK-MEL-28
HCC 2998 = tested on: HCC 2998
KM12 = tested on: KM12

Measured: GI50

CCOC(=O)c1sc2nc(SC)nc3c2c1NCN3c1ccc2c(c1)OCO2
inactive: HT-29 31.3 µM | Malme-3M 17.9 µM | U-251 7.03 µM | OVCAR-3 10.8 µM | PC-3 14.3 µM | MOLT-4 26.1 µM | UACC-62 12.2 µM | ACHN 5.94 µM | HL-60 52 µM | Hs-578T 3.58 µM | 786-0 4.34 µM | M14 15.5 µM | SK-MEL-2 18.3 µM | MDA-N 44.3 µM | CCRF-CEM 14.6 µM | MDA-MB-231 13.4 µM | DU-145 12.1 µM | SK-MEL-28 8.04 µM | HCC 2998 44.7 µM | KM12 > 100 µM

COc1ccc(C(=O)/C=C2\C(=O)Nc3ccc(Br)cc32)cc1
inactive: HT-29 1.82 µM | Malme-3M 8.22 µM | U-251 14.2 µM | OVCAR-3 2.97 µM | PC-3 6.68 µM | MOLT-4 2.41 µM | UACC-62 13.9 µM | ACHN 1.89 µM | HL-60 1.99 µM | Hs-578T 13.8 µM | 786-0 1.97 µM | M14 12 µM | SK-MEL-2 16.1 µM | MDA-N 5.81 µM | CCRF-CEM 1.4 µM | MDA-MB-231 5.57 µM | DU-145 7.48 µM | SK-MEL-28 10.5 µM | HCC 2998 4.26 µM | KM12 3.21 µM

COc1cc2c3c4c1OCc1c5c(cc(c1-4)CC3[N+](C)(C)CC2)OCO5 (stereo not given)
inactive: HT-29 > 100 µM | Malme-3M 60.5 µM | U-251 4.9 µM | OVCAR-3 > 89.9 µM | PC-3 > 100 µM | MOLT-4 > 100 µM | UACC-62 > 100 µM | ACHN > 100 µM | HL-60 > 100 µM | Hs-578T 4.18 µM | 786-0 4.33 µM | M14 > 100 µM | SK-MEL-2 > 100 µM | MDA-N > 100 µM | CCRF-CEM > 100 µM | MDA-MB-231 > 100 µM | DU-145 > 100 µM | SK-MEL-28 > 100 µM | HCC 2998 > 100 µM | KM12 > 100 µM

Cc1ccccc1OC(C)C(=O)NN1C(=O)CC(=O)N(c2ccc(Cl)cc2)C1=S (stereo not given)
inactive: HT-29 39.5 µM | Malme-3M 48.2 µM | U-251 34.1 µM | OVCAR-3 37.1 µM | PC-3 31.9 µM | MOLT-4 30.5 µM | UACC-62 27.9 µM | ACHN 33.8 µM | HL-60 13.4 µM | Hs-578T 63.2 µM | 786-0 34 µM | M14 44.8 µM | SK-MEL-2 27.8 µM | MDA-N 32.1 µM | CCRF-CEM 19.3 µM | MDA-MB-231 26 µM | DU-145 36.1 µM | SK-MEL-28 41.4 µM | HCC 2998 27.4 µM | KM12 36.3 µM
